Data taken from US20110046102A1, “AZABICYCLIC COMPOUNDS, PREPARATION THEREOF AND USE OF SAME AS DRUGS, ESPECIALLY BETA-LACTAMASE INHIBITORS” (Novexel, priority 2008, published 2011).
pIC50: −log10 of the molar value. Structures can show the parent of a compound that is named as a salt.

What was measured:
[1] = tested on: C. freundii 261GR6 (AmpC); assay: MIC of ceftazidime alone or with inhibitor, micro-dilution in liquid medium, strain 261GR6; type: cell-based; details: 24 h; for MIC of CAZ in combination with inhibitor (CAZ-Inhibitor): inhibitor at constant 4 μg/mL
Experimental: (§1) II/ The evidenced β-lactamase inhibiting activity potentialises the antibacterial activity of antibiotics of β-lactam type, and therefore leads to a synergic effect, as is shown by the results given below which express the minimum inhibitory concentration in vitro (MIC in μg/ml), against a certain number of pathogenic microorganisms, and of combinations of ceftazidime (<<CAZ >>) with formula (I) compounds at a concentration of 4 mg/l. Operations are as follows using the so-called micro-dilution method in liquid medium.
(§2) A series of β-lactam concentrations are prepared in the presence of a constant concentration (4 mg/l) of the product to be assayed, each is then seeded with various bacterial strains.
(§3) After 24-hour incubation in an oven at 37° C. growth inhibition is assessed via the lack of any bacterial growth, which allows determination of the minimum inhibitory concentrations (MICs) for each strain, expressed in milligrams/l.

[2] = tested on: E. cloacae 293HT6 (P99 AmpC); assay: MIC of ceftazidime alone or with inhibitor, micro-dilution in liquid medium, strain 293HT6; type: cell-based; details: 24 h; for MIC of CAZ in combination with inhibitor (CAZ-Inhibitor): inhibitor at constant 4 μg/mL
Experimental: as §1, §2, §3

E. cloacae 293HT4 (AmpC) = assay: MIC of ceftazidime alone or with inhibitor, micro-dilution in liquid medium, strain 293HT4; type: cell-based; details: 24 h; for MIC of CAZ in combination with inhibitor (CAZ-Inhibitor): inhibitor at constant 4 μg/mL
Experimental: as §1, §2, §3

E. coli 250BE6 (TEM3) = assay: MIC of ceftazidime alone or with inhibitor, micro-dilution in liquid medium, strain 250BE6; type: cell-based; details: 24 h; for MIC of CAZ in combination with inhibitor (CAZ-Inhibitor): E. coli 250BE6 TEM3, inhibitor at constant 4 μg/mL
Experimental: as §1, §2, §3

E. coli TEM1 β-lactamase = target: T1, E. coli TEM1 β-lactamase (Escherichia coli, UniProt P62593); assay: β-lactamase inhibiting activity on isolated enzyme (Nitrocefin hydrolysis), TEM1; type: biochemical; details: 5 min pre-incubation, 100 μM Nitrocefin, pH 7.0, 37° C., mean of at least 2 experiments, read-out: IC50 enzyme inhibition
T1 construct: The β-lactamases are isolated from bacterial strains resistant to penicillins and cephalosporins; endogenous in cells; host or cells: E. coli 250HT21 (soluble fraction of French-press lysate)
Experimental: (§4) A. Preparation of Tem-1 and P99 β-lactamases
(§5) The β-lactamases are isolated from bacterial strains resistant to penicillins and cephalosporins (Tem 1 and P99 are respectively produced by E. coli 250HT21 and E.Cloacae 293 HT6).
(§6) The bacteria are cultured in 37g/l brain-heart infusion (DIFCO), at 37° C. They are harvested at the end of the exponential phase, cooled and centrifuged. The bacterial residues are dissolved in 50 mM sodium phosphate buffer pH 7.0 and again centrifuged. The bacteria are dissolved in two volumes of this same buffer and lysed using a French-Press held at 4° C. After centrifuging 1 h at 100 000g, at 4° C., the supernatants containing the soluble fraction of the bacterial extracts are collected and frozen to −80° C.
(§7) B. Determination β-lactamase Activity
(§8) The method uses Nitrocefin (OXOID) as substrate, a chromogenic cephalosporin, whose hydrolysis product by β-lactamases is red and absorbed at 485 nm.
(§9) β-lactamase activity is determined kinetically by measuring the variation in absorbance at 485 nm resulting from hydrolysis of the substrate on a plate spectrophotometer (Spectra Max Plus by Molecular Devices). Experiments are conducted at 37° C. The quantity of enzyme was normalized and measurements are taken at initial velocity.
(§10) C. Determination of β-Lactamase Inhibiting Activity
(§11) The measurements are taken with pre-incubation of the enzyme and of the inhibitor (5 min). The products are assayed at 11 concentrations. The reaction mixture contains 100 μM Nitrocefin and 50 mM sodium phosphate buffer, pH 7.0, and 0.1 mg/mL bovine serum albumin.
(§12) Hydrolysis velocities are measured with and without inhibitor. The inhibitor concentration is determined which inhibits 50% of the Nitrocefin hydrolysis reaction by the enzyme (IC50). Data is processed using GraFit software (Erithacus Software). The IC50 values are the mean of the IC50s obtained in at least 2 different experiments.

[3] = target: T2, E. cloacae P99 β-lactamase (Enterobacter cloacae, UniProt P05364); assay: β-lactamase inhibiting activity on isolated enzyme (Nitrocefin hydrolysis), P99; type: biochemical; details: 5 min pre-incubation, 100 μM Nitrocefin, pH 7.0, 37° C., mean of at least 2 experiments, read-out: IC50 enzyme inhibition
T2 construct: The β-lactamases are isolated from bacterial strains resistant to penicillins and cephalosporins; endogenous in cells; host or cells: E. cloacae 293HT6 (soluble fraction of French-press lysate)
Experimental: as §4, §5, §6, §7, §8, §9, §10, §11, §12

[4] = Enterobacter cloacae, no inhibitor, read-out: MIC CAZ alone

T2 sequence (P05364 21-381): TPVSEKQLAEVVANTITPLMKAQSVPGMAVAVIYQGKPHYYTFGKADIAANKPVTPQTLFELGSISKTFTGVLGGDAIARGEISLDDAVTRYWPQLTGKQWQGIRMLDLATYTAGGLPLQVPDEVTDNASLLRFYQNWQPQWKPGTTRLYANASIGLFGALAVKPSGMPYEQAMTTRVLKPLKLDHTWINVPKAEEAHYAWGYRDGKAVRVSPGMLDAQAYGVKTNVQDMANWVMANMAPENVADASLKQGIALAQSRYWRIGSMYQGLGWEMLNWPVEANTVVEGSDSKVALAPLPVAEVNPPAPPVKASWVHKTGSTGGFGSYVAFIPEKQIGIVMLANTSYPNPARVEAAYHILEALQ
T1 sequence (P62593 24-286 limits assumed): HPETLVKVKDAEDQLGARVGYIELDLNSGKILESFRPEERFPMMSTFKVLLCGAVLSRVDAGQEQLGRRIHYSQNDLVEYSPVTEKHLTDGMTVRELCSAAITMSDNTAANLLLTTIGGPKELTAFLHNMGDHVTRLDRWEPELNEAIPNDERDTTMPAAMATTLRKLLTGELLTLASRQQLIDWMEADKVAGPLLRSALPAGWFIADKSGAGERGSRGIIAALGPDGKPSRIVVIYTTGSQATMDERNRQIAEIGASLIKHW

Row | SMILES | MIC ([1]; Citrobacter freundii, no inhibitor, read-out: MIC CAZ alone) | MIC [2, 4] | MIC (E. cloacae 293HT4 (AmpC); [4]) | MIC (E. coli 250BE6 (TEM3); Escherichia coli, read-out: MIC CAZ alone) | pIC50 (E. coli TEM1 β-lactamase) | MIC of CAZ in combination with inhibitor (CAZ-Inhibitor) [1] | pIC50 [3] | MIC of CAZ in combination with inhibitor (CAZ-Inhibitor) [2] | MIC of CAZ in combination with inhibitor (CAZ-Inhibitor) (E. cloacae 293HT4 (AmpC)) | MIC of CAZ in combination with inhibitor (CAZ-Inhibitor) (E. coli 250BE6 (TEM3))
1 | CC(C)(O/N=C(\C(=O)N[C@@H]1C(=O)N2C(C(=O)[O-])=C(C[n+]3ccccc3)CS[C@H]12)c1csc(N)n1)C(=O)O [CAZ, ceftazidime, reference compound] | > 32 µg/mL | > 32 µg/mL | > 32 µg/mL | > 32 µg/mL |  |  |  |  |  | 
2 | NC(=O)[C@@H]1CC[C@@H]2CN1C(=O)N2OC(F)(F)C(=O)O [Example 3, Sodium salt of trans-(1R,2S,5R)-6-(1,1-difluoro-2-hydroxy-2-oxoethoxy)-7-oxo-1,6-diazabicyclo[3.2.1]octane-2-carboxamide] |  |  |  |  | 9.10 | 1 µg/mL | 5.66 | 1 µg/mL | 0.5 µg/mL | 0.25 µg/mL
3 | NC(=O)[C@@H]1CC[C@@H]2CN1C(=O)N2OC(F)C(=O)O (mixture of isomers) [Example 2, trans-(1R,2S,5R)-6-(1-fluoro-2-hydroxy-2-oxoethoxy)-7-oxo-1,6-diazabicyclo[3.2.1]octane-2-carboxamide] |  |  |  |  | 8.70 | 4 µg/mL | 5.34 | 8 µg/mL | 8 µg/mL | 0.25 µg/mL
4 | NC(=O)[C@@H]1CC[C@@H]2CN1C(=O)N2OCC(=O)O [Example 1, trans-(1R,2S,5R)-6-(2-hydroxy-2-oxoethoxy)-7-oxo-1,6-diazabicyclo[3.2.1]octane-2-carboxamide, reference compound] |  |  |  |  | 6.14 | >32 µg/mL | 4.27 | >32 µg/mL | >32 µg/mL | 2 µg/mL
